# According to patent US8101619B2, “Phenylpiperazine derivatives with a combination of partial dopamine-D2 receptor agonism and serotonin reuptake inhibition” (Solvay Pharmaceuticals B.V., priority 2004, dated 2012):
# Structures can show the parent of a compound that is named as a salt.
# Tests used:
# serotonin reuptake sites = target: T1, serotonin reuptake sites (Rattus norvegicus, UniProt P31652); assay: In vitro affinity for serotonin reuptake sites ([3H]-paroxetine binding assay); details: receptor binding; read-out: 5-HT reuptake binding pKi (converted)
# T1 construct: from tissue
# Procedure: In Vitro Affinity for Serotonin Reuptake Sites
# Affinity of the compounds for serotonin reuptake sites was determined using the receptor binding assay described by E. Habert et al.: “Characterisation of [^3H]-paroxetine binding to rat cortical membranes”, Eur. J. Pharmacol., 118, 107-114, 1985.
# [1] = target: T2, Human dopamine D2,L receptors (Homo sapiens, UniProt P14416); assay: Inhibition of forskolin-induced [3H]-cAMP accumulation in CHO-K1 cells; assay type: cell-based; details: cloned human dopamine D2,L receptors in CHO-K1 cells; full agonist ε=1, full antagonist ε=0
# T2 construct: host or cells: CHO-K1
# Procedure: Inhibition of Forskolin-Induced [^3H]-cAMP Accumulation
# The in vitro functional activity at dopamine-D2 receptors, including the intrinsic activity (ε) of the compounds of the invention was measured by their ability to inhibit forskolin-induced [^3H]-cAMP accumulation.
# Human dopamine D2,L receptors were cloned in fibroblast cell line CHO-K1 cells and obtained from Dr. Grandy, Vollum Institute, Portland, Oreg., USA. CHO cells were grown in a Dulbecco's modified Eagle's medium (DMEM) culture medium, supplemented with 10% heat-inactivated fetal calf serum, 2 mM glutamine, 1 mM pyruvate, 5000 units/ml penicillin, 5000 μg/ml streptomycin and 200 μg/ml G-418 at 37° C. in 93% air/7% CO2. For incubation with test compounds, confluent cultures grown in 24 wells plates were used. Each condition or substance was routinely tested in quadruplicate. Cells were loaded with 1 μCi [^3H]-adenine in 0.5 ml medium/well. After 2 hours, cultures were washed with 0.5 ml PBS containing 1 mM of the phosphodiesterase inhibitor isobutylmethylxanthine (IBMX) and incubated for 20 min with 0.5 ml PBS containing 1 mM IBMX and forskolin with or without test compound. After aspiration the reaction was stopped with 1 ml trichloroacetic acid 5% (w/v). […] 0.8 ml Extract was passed over Dowex (50WX-4 200-400 mesh) and aluminumoxide columns, eluted with water and 0.1M imidazole (pH=7.5). Eluates were mixed with 7 ml Insta-gel and radioactivity was counted with a liquid scintillation counter. The conversion of [^3H]-ATP into [^3H]-cAMP was expressed as the ratio in percentage radioactivity in the cAMP fraction as compared to combined radioactivity in both cAMP and ATP fractions, and basal activity was subtracted to correct for spontaneous activity.
# Test compounds were obtained as 10 mM stock solutions in 100% DMSO, and diluted in PBS/IBMX to final concentrations. Typically, compounds were used in concentrations that ranged from 10^−10M to 10^−5M. From quadruplicate data counts, the mean was taken as an estimate for drug-induced, receptor-mediated effects at specified second messenger accumulation, expressed as percentage of control values (forskolin-stimulated cAMP accumulation, subtracted by basal activity). By using the non-linear curve-fitting program INPLOT or the Excel-add-in XL-Fit, mean values were plotted against drug concentration (in molar) and a sigmoid curve (four-parameter logistic curve) was constructed. The maximal forskolin-induced stimulated conversion is taken as maximum value and the maximal inhibition (usually at drug concentrations 10^−6 M or 10^−5 M) as minimum and these values were fixed during the fitting process. Thus, concentrations of the compound, causing 50% of the maximally obtained inhibition of forskolin-induced cAMP accumulation (EC50), are averaged over several experiments and presented as mean pEC50±SEM. Antagonist potency is assessed by co-incubating cells with a fixed agonist concentration and specified antagonist concentrations. Curve fitting procedures are identical to those used for estimating EC50 values. Thus IC50 values, i.e. the concentration that is able to achieve 50% of maximal antagonism that can be achieved by this compound. IC50 values are corrected using a Cheng-Prussoff equation, correcting it for agonist concentration and EC50 values that is obtained in the same experiment. Thus, Kb=IC50/(1+[agonist]/EC50, agonist). The corresponding pA2 value is −log (Kb). Concentration-response curve fitting allows estimation of pEC50 values and of maximal achievable effect (intrinsic activity or efficacy (ε). A full receptor agonist has ε=1, a full receptor antagonist has ε=0, and a partial receptor agonist has an intermediate intrinsic activity.
# dopamine-D2 receptors = target: T3, dopamine-D2 receptors (Rattus norvegicus, UniProt P61169); assay: In vitro affinity for dopamine-D2 receptors ([3H]-spiroperidol receptor binding assay); details: read-out: Dopamine-D2 binding pKi (converted)
# T3 construct: labels dopamine receptors in rat pituitary and brain; from tissue
# Procedure: In Vitro Affinity for Dopamine-D2 Receptors
# Affinity of the compounds for dopamine-D2 receptors was determined using the receptor binding assay described by 1. Creese, R. Schneider and S. H. Snyder: “[^3H]-Spiroperidol labels dopamine receptors in rat pituitary and brain”, Eur. J. Pharmacol., 46, 377-381, 1977.
# T1 sequence (P31652 whole entry): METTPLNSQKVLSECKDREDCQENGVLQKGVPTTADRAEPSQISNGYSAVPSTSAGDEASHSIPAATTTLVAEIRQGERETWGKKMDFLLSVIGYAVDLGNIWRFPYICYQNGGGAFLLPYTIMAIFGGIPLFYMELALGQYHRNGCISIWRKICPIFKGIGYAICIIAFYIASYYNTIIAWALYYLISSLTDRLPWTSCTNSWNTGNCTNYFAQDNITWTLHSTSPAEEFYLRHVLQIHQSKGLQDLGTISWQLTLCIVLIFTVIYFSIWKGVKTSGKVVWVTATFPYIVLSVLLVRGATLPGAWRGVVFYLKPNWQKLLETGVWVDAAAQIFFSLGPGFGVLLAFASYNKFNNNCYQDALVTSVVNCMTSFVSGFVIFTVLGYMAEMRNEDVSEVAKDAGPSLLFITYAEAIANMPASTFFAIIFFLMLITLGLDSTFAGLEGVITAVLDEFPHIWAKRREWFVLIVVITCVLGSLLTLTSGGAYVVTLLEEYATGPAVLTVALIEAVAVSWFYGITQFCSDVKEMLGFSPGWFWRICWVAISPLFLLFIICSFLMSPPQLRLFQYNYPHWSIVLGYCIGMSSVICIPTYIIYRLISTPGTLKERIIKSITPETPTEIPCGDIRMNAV
# T3 sequence (P61169 whole entry): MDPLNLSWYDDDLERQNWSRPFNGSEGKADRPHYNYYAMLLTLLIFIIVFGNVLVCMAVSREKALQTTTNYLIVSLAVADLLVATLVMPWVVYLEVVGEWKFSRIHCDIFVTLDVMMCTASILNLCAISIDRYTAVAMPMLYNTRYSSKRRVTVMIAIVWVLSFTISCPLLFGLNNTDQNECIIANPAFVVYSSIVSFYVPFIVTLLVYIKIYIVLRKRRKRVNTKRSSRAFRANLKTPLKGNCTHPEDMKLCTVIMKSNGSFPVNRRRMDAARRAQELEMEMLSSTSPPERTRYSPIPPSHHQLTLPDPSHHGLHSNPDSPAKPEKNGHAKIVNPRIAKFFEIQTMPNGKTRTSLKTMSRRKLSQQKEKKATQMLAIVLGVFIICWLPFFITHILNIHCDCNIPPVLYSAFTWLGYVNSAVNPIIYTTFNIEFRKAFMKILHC
# T2 sequence (P14416 whole entry): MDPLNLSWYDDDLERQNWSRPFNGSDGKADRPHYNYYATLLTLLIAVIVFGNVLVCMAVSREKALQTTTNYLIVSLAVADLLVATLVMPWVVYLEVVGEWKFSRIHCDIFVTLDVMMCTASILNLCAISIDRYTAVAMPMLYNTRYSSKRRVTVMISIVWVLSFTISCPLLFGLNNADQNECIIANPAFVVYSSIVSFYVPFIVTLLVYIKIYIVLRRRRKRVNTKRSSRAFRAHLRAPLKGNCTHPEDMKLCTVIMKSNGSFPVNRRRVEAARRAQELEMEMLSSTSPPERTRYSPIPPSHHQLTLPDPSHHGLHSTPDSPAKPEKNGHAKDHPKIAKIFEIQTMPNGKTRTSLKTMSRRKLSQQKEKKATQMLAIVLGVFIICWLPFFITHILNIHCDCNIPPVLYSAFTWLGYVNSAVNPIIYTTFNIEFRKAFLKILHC
compound,measurement,setting,value
CN(CCN1CCN(c2cccc3[nH]c(=O)oc23)CC1)c1cccc(C#N)c1 (as salt: HCl) [compound 14],melting point,,230 to 231 °C
CN(CCCN1CCN(c2cccc3[nH]c(=O)oc23)CC1)c1cccc(C#N)c1 (as salt: HCl) [compound 15],melting point,,195 to 196 °C
N#Cc1cccc(SCCCCN2CCN(c3cccc4[nH]c(=O)oc34)CC2)c1 (as salt: HCl) [compound 20],melting point,,168 to 170 °C
N#Cc1cccc(OCCCN2CCN(c3cc(Cl)cc4[nH]c(=O)oc34)CC2)c1 (as salt: HCl) [compound 26],melting point,,251 to 254 °C
N#Cc1cccc(OCCCCN2CCN(c3cccc4[nH]c(=O)oc34)CC2)c1 [compound 6],Ki,serotonin reuptake sites,3.98 nM
same,Dopamine-D2 cAMP accum ε (intrinsic activity),[1],0.76
same,melting point,,165 to 168 °C
same,Ki,dopamine-D2 receptors,1 nM
O=c1[nH]c2cccc(N3CCN(CCCCOc4cccc(F)c4)CC3)c2o1 [compound 9],Ki,serotonin reuptake sites,100 nM
same,Dopamine-D2 cAMP accum ε (intrinsic activity),[1],0.64
same,melting point,,153 to 155 °C
same,Ki,dopamine-D2 receptors,6.31 nM
CN(CCN1CCN(c2cccc3[nH]c(=O)oc23)CC1)c1cccc(C#N)c1 [compound 14],Ki,serotonin reuptake sites,1 nM
same,Dopamine-D2 cAMP accum ε (intrinsic activity),[1],0.57
same,Ki,dopamine-D2 receptors,15.8 nM
CN(CCCN1CCN(c2cccc3[nH]c(=O)oc23)CC1)c1cccc(C#N)c1 [compound 15],Ki,serotonin reuptake sites,0.794 nM
same,Dopamine-D2 cAMP accum ε (intrinsic activity),[1],0.61
same,Ki,dopamine-D2 receptors,6.31 nM
O=c1[nH]c2cccc(N3CCN(CCCOc4cccc(C(F)(F)F)c4)CC3)c2o1 [compound 17],Ki,serotonin reuptake sites,50.1 nM
same,Dopamine-D2 cAMP accum ε (intrinsic activity),[1],0.51
same,melting point,,140 to 142 °C
same,Ki,dopamine-D2 receptors,25.1 nM
N#Cc1cccc(SCCCCN2CCN(c3cccc4[nH]c(=O)oc34)CC2)c1 [compound 20],Ki,serotonin reuptake sites,3.16 nM
same,Dopamine-D2 cAMP accum ε (intrinsic activity),[1],0.98
same,Ki,dopamine-D2 receptors,3.98 nM
COc1ccc(C#N)cc1OCCCN1CCN(c2cccc3[nH]c(=O)oc23)CC1 [compound 24],Ki,serotonin reuptake sites,12.6 nM
same,Dopamine-D2 cAMP accum ε (intrinsic activity),[1],0.86
same,melting point,,189 to 190 °C
same,Ki,dopamine-D2 receptors,1.26 nM
N#Cc1cccc(OCCCN2CCN(c3cc(Cl)cc4[nH]c(=O)oc34)CC2)c1 [compound 26],Ki,serotonin reuptake sites,10 nM
same,Dopamine-D2 cAMP accum ε (intrinsic activity),[1],0.79
same,Ki,dopamine-D2 receptors,10 nM
Cn1c(=O)oc2c(N3CCN(CCCCOc4cccc(F)c4)CC3)cccc21 [compound 31],Ki,serotonin reuptake sites,5.01 nM
same,Dopamine-D2 cAMP accum ε (intrinsic activity),[1],0.56
same,melting point,,95 to 97 °C
same,Ki,dopamine-D2 receptors,63.1 nM
CN(CCCCN1CCN(c2cccc3c2oc(=O)n3C)CC1)c1cccc(C#N)c1 [compound 35],Ki,serotonin reuptake sites,0.631 nM
same,Dopamine-D2 cAMP accum ε (intrinsic activity),[1],0.55
same,melting point,,87 to 89 °C
same,Ki,dopamine-D2 receptors,100 nM
